“Also recorded” adds a separate entry of the source. Like-named read-outs stand apart in the source and are kept apart here.
Key:
[1] = test system: Boraras Micros fish; test: Protection of Boraras Micros fish from CuCl2 by chelators; assay type: in vivo; conditions: 0.4 ppm CuCl2 + a few ppm to more than 10 ppm of chelator
[2] = test system: loss of taste in Covid 19; test: Treatment of loss of taste in Covid 19; assay type: in vivo, human; conditions: solution containing 2% Ca EDTA sucked for a few minutes
[3] = test system: pathogenic microorganisms; test: Inhibition/killing of pathogenic microorganisms in water with Boraras Micros fish infected from dead fish; assay type: in vivo; conditions: for appearance of water after 6 days / fish outcome after 6 days: 10 ppm Ampicillin / 20 ppm Bactrim / 100 ppm triethylenetetramine diethylenetriaminepentaacetate / 300 Mg EDTA / 600 ppm Ca EDTA / combinations as in label
[4] = test system: microorganisms that decompose organic matter (bacteria/fungi); test: Culture of microorganisms that decompose organic matter; assay type: cell-based; conditions: media with growth promoting substances
[5] = Safety of Ca EDTA in adults; assay type: in vivo, human; conditions: 20 g for each time, 4 hours apart
[6] = test system: Boraras Micros fish
[7] = Metallic Cu suspension test with 1% Na ascorbate (Cu ion complex formation); assay type: physicochemical; conditions: 0.1% CuCl2, alone or with several percent of chelator; excess 1% Na ascorbate
[8] = test system: avian influenza; parameters: species or system chicken; conditions: in vivo
[9] = assay type: physicochemical, animal/human blood; conditions: for volume that completely dissolves Zn-blood complex suspension: suspension from 1.4 ml 0.1% ZnCl2 in 100 ml 0.9% NaCl with 1% blood; for amount needed to completely dissolve Zn-blood complex suspension, compared with lysine phosphate/lysine chloride/arginine phosphate/arginine chloride: suspension with 2 ppm ZnCl2
[10] = test system: toxins/neurotoxins; microorganisms; conditions: processed foods
[11] = test system: dry eyes/eye pain/red eyes; test: Treatment of dry eyes/eye pain/red eyes; assay type: in vivo, human; conditions: 0.1% eye drops, 2 to 6 times a day
[12] = test system: mice; assay type: in vivo, mouse; conditions: 0.3% in drinking water from 12 hours after flocoumafen
[13] = test system: Boraras Micros fish; test: Neutralization of toxins/neurotoxins in Boraras Micros fish; assay type: in vivo
[14] = test system: headache; test: Treatment of headaches of unknown cause; assay type: in vivo, human; conditions: 0.5 g oral, adult
[15] = 2000 ppm triethylenetetramine diethylnenepentaacetate / 3000 ppm Mg EDTA / 2000 ppm Cu EDTA / 12000 ppm Ca EDTA, mixtures at concentrations in label

O=C(O)CN(CCN(CC(=O)O)CC(=O)O)CC(=O)O.[Ca] [Ca EDTA, Ethylenediaminetetraacetic acid calcium]
survival of fish in CuCl2 with chelator [1]: will not die after several weeks | recovery of sweet taste [2]: recover immediately afterwards | appearance of water after 6 days ([3]; calcium): clear; also recorded: transparent | fish outcome after 6 days ([3]; calcium): lived; also recorded: did not die | concentration at which proliferation of microorganisms is strongly inhibited [4]: 700 ppm | amount used by adults in 24 hours without side effects [5]: under 120 g | survival of fish ([6]; in vivo): lived for many days | time after which fish did not die ([6]; in vivo): ≥ 10 days | toxicity / safety to host cells ([6]; in vivo): highly safe

O=C(O)CN(CCN(CC(=O)O)CC(=O)O)CC(=O)O.[Mg] [Mg EDTA, Ethylenediaminetetraacetic acid magnesium]
survival of fish in CuCl2 with chelator [1]: will not die after several weeks | appearance of metallic Cu suspension [7]: metallic Cu suspension will not appear | state of chickens after 12 hours [8]: stopped the lethargic state and they returned to eating normally | volume that completely dissolves Zn-blood complex suspension ([9]; 0.1% solution): 2 mL | amount needed to completely dissolve Zn-blood complex suspension, compared with lysine phosphate/lysine chloride/arginine phosphate/arginine chloride [9]: tens to hundreds of times lower | appearance of water after 6 days [3]: clear; also recorded: transparent | fish outcome after 6 days [3]: lived; also recorded: did not die | time after which fish did not die ([6]; 800 ppm EDTA Cu / 3000 ppm EDTA Mg / 12000 ppm EDTA Ca): ≥ 10 days | survival of fish [6, 15]: lived for many days

triethylenetetramine diethylenetriaminepentaacetate
survival of fish in CuCl2 with chelator [1]: will not die after several weeks | concentration that inactivates toxins/neurotoxins while preventing proliferation of microorganisms [10]: over 30 ppm | appearance of metallic Cu suspension [7]: metallic Cu suspension will not appear | dry eyes/eye pain symptoms a few minutes after instilling [11]: no longer exist | red eyes symptoms [11]: decrease after a few hours | survival of mice fed flocoumafen [12]: after many days the mice still lived | volume that completely dissolves Zn-blood complex suspension ([9]; concentration of solution not given): 1.2 mL | amount needed to completely dissolve Zn-blood complex suspension, compared with lysine phosphate/lysine chloride/arginine phosphate/arginine chloride [9]: tens to hundreds of times lower | appearance of water after 6 days [3]: clear; also recorded: transparent | fish outcome after 6 days [3]: lived; also recorded: did not die | concentration in host blood/tissue fluid/alveolar fluid above which ability to inhibit/kill pathogenic bacteria far exceeds Bactrim 10 ppm/Ampicillin 20 ppm ([3]; in vivo): above 60 ppm | survival of fish with Alpha Cypermethrin ([13]; 0.2 ppm Alpha Cypermethrin + 50-300 ppm chelator): lived for many days | survival of fish with Methylamine Avermectin ([13]; 0.2 ppm Methylamine Avermectin + 50-300 ppm chelator): lived for many days | survival of fish with Bromadiolone ([13]; 0.3 ppm Bromadiolone + 50-300 ppm chelator): lived for many days | survival of fish with phenylperazole ([13]; 1.0 ppm phenylperazole + 50-300 ppm chelator): lived for many days | survival of fish with flocoumafen ([13]; 1.25 ppm flocoumafen + 50-300 ppm chelator): lived for many days (up to weeks) | survival of fish with Emamectin benzoate ([13]; 2.5 ppm Emamectin benzoate + 50-300 ppm chelator): lived for many days | survival of fish with Nereistoxin ([13]; 5 ppm Nereistoxin + 50-300 ppm chelator): lived for many days (up to weeks) | time until headache symptoms significantly reduced [14]: about 2 hours | concentration at which proliferation of microorganisms is strongly inhibited [4]: 100 ppm | survival of fish [6, 15]: lived for many days

— patent publication US20260294964A1, “PHARMACEUTICALS CONTAINING CHELATORS WITH STRONG ZN IONS-HOLDING FEATURE FOR THE TREATMENT OF SYMPTOMS AND DISEASES CAUSED BY MICROORGANISMS/DISEASES CAUSED BY TOXINS OR NEUROTOXINS/CANCER/SEVERAL SYNDROMES” (priority 2023, published 2026)
